Results: paper PMC6009890, “Rosmarinic acid prevents fibrillization and diminishes vibrational modes associated to β sheet in tau protein linked to Alzheimer’s disease” (Journal of Enzyme Inhibition and Medicinal Chemistry, 2017)
Where two headings read alike, the source gives them in different places.

Legend:
tau protein (4R) [1] = target: T1, tau protein (4R) (Homo sapiens, UniProt P10636); experiment: ThT fluorescence of heparin-induced aggregation of purified tau 4R, single concentration […]; assay type: biochemical
T1 construct: gene MAPT; fragment 4R (htau244–372), His-tagged
T1 sequence (P10636 561-689): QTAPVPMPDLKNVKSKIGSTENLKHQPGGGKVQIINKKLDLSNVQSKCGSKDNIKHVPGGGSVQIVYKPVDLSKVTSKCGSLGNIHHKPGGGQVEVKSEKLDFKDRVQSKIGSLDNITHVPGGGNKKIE

tau protein (4R) [2] = target: T1, tau protein (4R); experiment: ThT fluorescence of heparin-induced aggregation of purified tau 4R; supported by AFM and Raman; assay type: biochemical

| Compound | inhibition at 50 µM (tau protein (4R) [1]; read-out: Inhibition (%)) [%] | also measured |
| --- | --- | --- |
| CC(C)c1cc2c(c(O)c1O)[C@@]13CCCC(C)(C)[C@@H]1[C@H](OC3=O)[C@H]2O [compound 3, rosmanol] | 50 | – |
| O=C(/C=C/c1ccc(O)c(O)c1)O[C@H](Cc1ccc(O)c(O)c1)C(=O)O [compound 5, rosmarinic acid] | – | IC50 (tau protein (4R) [2]): 7.7 µM |
| CC(C)c1cc2c(c(O)c1O)[C@@]13CCCC(C)(C)[C@@H]1[C@H](O)[C@@H]2OC3=O [compound 4, epiisorosmanol] | 70 | – |
| CC(C)c1cc2c(c(O)c1O)[C@@]13CCCC(C)(C)[C@@H]1C[C@@H]2OC3=O [compound 1, carnosol] | 68 | – |
| CC(C)c1cc2c(c(O)c1O)[C@@]1(C(=O)O)CCCC(C)(C)[C@@H]1CC2 [compound 2, carnosic acid] | – | inhibition at 50 µM (tau protein (4R) [1]): 65% |
